Laboratory results published in ChEMBL document CHEMBL1201862, “PubChem BioAssay data set” (2004).
Calls of active or inactive are those of the source. Rule as the data show it, for most assays here: actives have a measured EC50 and inactives only a lower limit.

Key:
[1] = microbe, parasite or virus in culture; assay type: functional; settings: Mycobacterium tuberculosis
[2] = cells; assay type: functional, cell-based
[3] = cells; assay type: functional, cell-based; remark: listed apart in the source
[4] = Luminescence Cell-Based Dose Response HTS to Identify Activators of Luciferase Translation or Activity in H4 […] Cells. [Related pubchem assays: 1829 (Project Summary), 1814 (Primary HTS)]; assay type: functional
[5] = Luminescence Cell-Based Dose Confirmation HTS to Identify Activators of 5'UTR Stem-Loop Driven Alpha-Synuclein mRNA Translation in H4 Neuroglioblastoma Cells. [Related pubchem assays: 1829 (Project Summary), 1814 (Primary HTS)]; assay type: functional
[6] = Trypanosoma cruzi growth suppression in host cells – NIH3T3 host cells, beta-gal luminescence, confirmation (AID 2044); assay type: functional, cell-based;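 also: intracellular parasites grown in NIH/3T3 mouse fibroblasts as host cells; luminescent beta-galactosidase reporter signal from transgenic T. cruzi replicating inside host cells; inhibitors lower the luminescence signal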
[7] = NIH-3T3 fibroblast cytotoxicity, dose response, cytotoxicity control, cell-based, fluorescence, Alamar Blue, secondary assay (AID 2327); assay type: functional;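 also: NIH-3T3 mouse fibroblasts cultured with fluconazole at 8 µg/mL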
[8] = fluconazole-exposed Candida albicans growth modulators – fluorescence, retest, confirmation (AID 2467); assay type: functional, cell-based
[9] = NIH3T3 cell viability loss – ATP luminescence, mouse fibroblasts, counter-screen, dose response (AID 2010); assay type: functional, cell-based;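 also: cells exposed to compound for about 90 hours before reading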
[10] = tested on: H4; assay: Luminescence Cell-Based Dose Response HTS to Identify Activators of 5'UTR Stem-Loop Driven Prion Protein mRNA Translation in H4 Neuroglioblastoma Cells. [Related pubchem assays: 1829 (Project Summary), 1814 (Primary HTS)]; assay type: functional; settings: Homo sapiens
[11] = tested on: Streptococcus; assay: GAS UMAA2166 growth inhibition – luminescence, BacTiterGlo, counter-screen for streptokinase expression inhibitor project, dose response (AID 1915); assay type: functional, organism-based;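 also: potency for reduction of bacterial viability or growth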
[12] = tested on: Streptococcus sp. 'group A'; assay: Streptococcus pyogenes SK(-)GAS viability under kanamycin – luminescence, BacTiterGlo, confirmation, counter-screen for streptokinase expression inhibitor project, dose response (AID 1900); assay type: functional, organism-based
[13] = biological target: T1, Calpain-2 catalytic subunit (Sus scrofa, UniProt P43367); assay: m-calpain protease blockers, concentration series – biochemical, fluorogenic peptide substrate, dose response (AID 1420); assay type: functional
T1 sequence (P43367 whole entry): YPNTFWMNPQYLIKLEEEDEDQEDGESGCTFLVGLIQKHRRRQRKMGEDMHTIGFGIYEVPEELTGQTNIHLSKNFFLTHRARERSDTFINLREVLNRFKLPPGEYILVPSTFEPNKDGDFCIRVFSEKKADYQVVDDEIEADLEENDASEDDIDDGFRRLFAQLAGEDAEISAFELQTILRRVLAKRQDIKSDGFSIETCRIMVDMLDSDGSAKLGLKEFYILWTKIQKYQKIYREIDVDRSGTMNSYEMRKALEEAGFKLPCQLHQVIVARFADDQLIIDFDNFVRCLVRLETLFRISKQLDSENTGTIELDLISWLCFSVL

[14] = biological target: T2, Streptokinase A (Streptococcus pyogenes serotype M1, UniProt P10520); assay: viability-normalized secreted streptokinase activity reduction – plasminogen activation absorbance, OD405, dose response (AID 1914); assay type: functional, Streptococcus pyogenes M1 GAS;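 also: secreted streptokinase activity via plasminogen activation per viability signal from cell pellet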
T2 sequence (P10520 whole entry): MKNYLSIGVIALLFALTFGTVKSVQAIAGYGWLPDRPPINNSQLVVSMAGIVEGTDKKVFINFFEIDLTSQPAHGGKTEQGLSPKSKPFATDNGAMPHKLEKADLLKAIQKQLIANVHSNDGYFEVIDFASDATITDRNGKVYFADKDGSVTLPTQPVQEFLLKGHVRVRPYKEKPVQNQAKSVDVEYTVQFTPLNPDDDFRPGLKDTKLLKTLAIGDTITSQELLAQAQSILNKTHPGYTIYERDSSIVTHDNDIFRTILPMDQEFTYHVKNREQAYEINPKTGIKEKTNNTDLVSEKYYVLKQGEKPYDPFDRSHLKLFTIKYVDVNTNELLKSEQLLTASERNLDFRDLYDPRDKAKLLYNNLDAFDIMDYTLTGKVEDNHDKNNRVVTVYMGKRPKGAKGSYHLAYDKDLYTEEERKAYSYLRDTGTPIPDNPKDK

[15] = biological target: T3, Replicative DNA helicase DnaB (Mycobacterium tuberculosis, UniProt P9WMR3); assay: DnaB intein splicing inhibitors, dose response, biochemical, cell-free fluorescence (AID 449749); assay type: functional
T3 sequence (P9WMR3 whole entry): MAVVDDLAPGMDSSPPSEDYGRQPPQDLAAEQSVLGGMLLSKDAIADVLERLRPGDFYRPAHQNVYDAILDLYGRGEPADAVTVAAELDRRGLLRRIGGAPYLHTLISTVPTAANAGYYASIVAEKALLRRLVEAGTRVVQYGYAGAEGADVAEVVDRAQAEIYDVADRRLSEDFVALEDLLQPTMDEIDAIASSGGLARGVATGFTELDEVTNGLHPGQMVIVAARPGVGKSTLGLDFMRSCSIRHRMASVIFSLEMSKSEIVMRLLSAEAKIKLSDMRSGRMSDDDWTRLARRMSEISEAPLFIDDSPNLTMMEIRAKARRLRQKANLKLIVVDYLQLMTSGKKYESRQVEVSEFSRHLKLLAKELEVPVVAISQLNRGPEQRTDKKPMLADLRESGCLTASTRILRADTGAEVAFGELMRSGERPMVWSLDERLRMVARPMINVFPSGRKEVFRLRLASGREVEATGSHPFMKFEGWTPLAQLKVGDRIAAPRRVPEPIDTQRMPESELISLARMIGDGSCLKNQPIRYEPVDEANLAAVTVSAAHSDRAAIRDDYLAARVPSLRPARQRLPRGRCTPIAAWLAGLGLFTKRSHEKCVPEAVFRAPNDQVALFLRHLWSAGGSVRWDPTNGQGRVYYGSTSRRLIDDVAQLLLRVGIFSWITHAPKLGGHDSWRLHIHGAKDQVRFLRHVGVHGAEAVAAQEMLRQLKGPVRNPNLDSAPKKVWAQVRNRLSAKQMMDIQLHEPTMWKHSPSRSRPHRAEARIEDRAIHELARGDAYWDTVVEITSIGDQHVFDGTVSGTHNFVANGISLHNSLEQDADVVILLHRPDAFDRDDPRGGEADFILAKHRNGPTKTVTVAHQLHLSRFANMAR

[16] = biological target: T4, Protein RecA (Mycobacterium tuberculosis, UniProt P9WHJ3); assay: Fluorescence Cell-Free Homogeneous Dose Retest to Identify Inhibitors of RecA-Intein Splicing Activity. [Related pubchem assays (depositor defined):AID2097, AID2223, AID489010, AID492950]; assay type: functional
T4 sequence (P9WHJ3 whole entry): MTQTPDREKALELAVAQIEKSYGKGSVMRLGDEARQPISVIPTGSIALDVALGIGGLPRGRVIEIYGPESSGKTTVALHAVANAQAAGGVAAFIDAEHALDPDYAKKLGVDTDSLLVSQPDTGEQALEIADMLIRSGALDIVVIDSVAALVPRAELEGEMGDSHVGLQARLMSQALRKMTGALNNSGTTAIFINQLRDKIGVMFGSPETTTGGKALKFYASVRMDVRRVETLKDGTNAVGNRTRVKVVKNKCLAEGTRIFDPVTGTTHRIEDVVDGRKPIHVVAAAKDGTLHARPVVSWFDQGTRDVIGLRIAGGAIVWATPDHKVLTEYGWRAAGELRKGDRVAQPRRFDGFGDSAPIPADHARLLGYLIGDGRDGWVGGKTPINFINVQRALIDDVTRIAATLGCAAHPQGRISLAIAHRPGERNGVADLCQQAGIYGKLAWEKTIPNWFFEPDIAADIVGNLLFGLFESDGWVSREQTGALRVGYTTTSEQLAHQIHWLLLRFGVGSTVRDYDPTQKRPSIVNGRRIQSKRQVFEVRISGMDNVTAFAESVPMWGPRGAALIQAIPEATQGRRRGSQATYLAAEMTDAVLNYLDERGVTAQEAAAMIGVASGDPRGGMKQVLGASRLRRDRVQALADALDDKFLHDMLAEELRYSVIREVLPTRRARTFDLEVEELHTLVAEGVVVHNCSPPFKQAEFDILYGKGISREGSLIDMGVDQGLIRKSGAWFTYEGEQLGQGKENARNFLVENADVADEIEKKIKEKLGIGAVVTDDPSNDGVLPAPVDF

[17] = tested on: INS1; assay: INS-1E survival protection against cytokine death – cell-based, luminescence, retest, dose response (AID 449756); assay type: functional; settings: Rattus norvegicus;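 also: cell death triggered by IL-1 beta plus TNF-alpha plus IFN-gamma mixture; protective hits raise ATP signal compared with cytokine alone wells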

CCOC(=O)/C(=N/Nc1ccc(OC)cc1)N1CCCc2ccccc21
CC50 [1]: > 40 µM (active)

O=C(c1cccc(C(F)(F)F)c1)C1CCCN(C(=O)Cn2cncn2)C1 (stereo unspecified)
EC50 [2]: > 350 µM (not active) | EC50 [3]: > 350 µM (not active)

Cc1ccc(-c2nc3nc4ccccc4nc3n2Cc2ccco2)cc1
EC50 [4]: 13.2 µM (active) | EC50 [5]: 21.9 µM (active)

Cn1c(CO)nc2c3ccccc3ccc21
EC50 [2]: > 350 µM (not active) | EC50 [3]: > 350 µM (not active)

CCc1ccc2oc(-c3ccc(OC)cc3)cc(=Nc3c(C)n(C)n(-c4ccccc4)c3=O)c2c1
EC50 [6]: 1.94 µM (active) | EC50 [7]: > 160 µM (inactive) | EC50 [8]: > 38 µM (not active) | CC50 [1]: 27.6 µM (active) | EC50 [9]: > 60 µM (not active)

CC(=O)N1CCOc2ccc(S(=O)(=O)N3CCCCC3)cc21
EC50 [4]: > 120 µM (not active) | EC50 [10]: > 120 µM (not active) | EC50 [5]: > 120 µM (not active)

COc1ccc(N2/C(=N/C(=O)CCC3CCCC3)SC3CS(=O)(=O)CC32)cc1 (stereo unspecified)
EC50 [2]: > 350 µM (not active) | EC50 [3]: > 350 µM (not active)

COc1ccc(NC(=O)CSc2nc(O)c3c(n2)CCC3)cc1OC
EC50 [2]: > 350 µM (not active) | EC50 [3]: > 350 µM (not active)

CCOC(=O)c1ccccc1NC(=O)COc1coc(CN2CCc3ccccc32)cc1=O
CC50 [1]: > 40 µM (active)

CN(C)c1ccc(/C=N/NC(=S)NCc2ccco2)cc1
EC50 [4]: 8.41 µM (active) | EC50 [10]: > 120 µM (not active) | EC50 [5]: 15.3 µM (active)

Cc1ccc(S(=O)(=O)N(C)CC(=O)NCCCn2ccnc2)cc1
EC50 [2]: > 350 µM (not active) | EC50 [3]: > 350 µM (not active)

CNC(=O)C1CCN(S(=O)(=O)c2c(C)noc2/C=C/c2ccccc2F)CC1
EC50 [4]: 12.8 µM (active) | EC50 [10]: > 120 µM (not active) | EC50 [5]: 21.8 µM (active)

Cc1ccc(NC2=NC(=O)c3cccc([N+](=O)[O-])c32)cc1
EC50 [4]: 26.7 µM (active) | EC50 [10]: 26.8 µM (active) | EC50 [5]: 77.8 µM (active)

O=C(Nc1nc(-c2ccccn2)cs1)c1ccc(S(=O)(=O)N2CCCCC2)cc1
EC50 [11]: 2.56 µM (active) | EC50 [12]: 0.879 µM (active) | EC50 [2]: > 350 µM (not active) | EC50 [3]: 13.4 µM (active)

N#C/C(=C(/O)c1ccc(F)cc1)c1nc2ccccc2s1
EC50 [2]: 7.41 µM (active) | EC50 [3]: > 350 µM (not active)

CC(C)C[C@H](NC(=O)c1[nH]cnc1C(=O)N[C@H](C)c1ccccc1)C(=O)OC(C)(C)C
EC50 [11]: 9.3 µM (active) | EC50 [12]: 3.86 µM (active) | IC50 [13]: 11.7 µM (not active) | EC50 [14]: > 150 µM (not active)

O=C(c1ccc(OC2CCN(CCc3ccccc3)CC2)cc1)N1CCCC(CCCO)C1 (stereo unspecified)
EC50 [2]: > 350 µM (not active) | EC50 [3]: > 350 µM (not active)

CN(Cc1cccs1)C(=O)CSc1nc(N)cc(N)n1
EC50 [2]: > 350 µM (not active) | EC50 [3]: > 350 µM (not active)

O=C(O)C1CC=CCC1C(=O)N1CCN(c2nc(-c3ccccc3Cl)c3cc(Br)ccc3n2)CC1 (stereo unspecified)
CC50 [1]: 38.3 µM (active)

O=C(Cn1c(Cc2ccccc2)nc2ccccc21)NCc1ccc2c(c1)OCO2
EC50 [2]: > 350 µM (not active) | EC50 [3]: > 350 µM (not active)

CCc1ccc(NC(=S)/N=C(\N)Nc2nc(C)c3cc(CC)ccc3n2)cc1
CC50 [1]: 17.4 µM (active)

O=C(NCCCC1CCCC1)C1CCC(=O)N(Cc2cccc(F)c2)C1 (stereo unspecified)
EC50 [4]: > 120 µM (not active) | EC50 [10]: > 120 µM (not active) | EC50 [5]: > 120 µM (not active)

CCOC(=O)c1c(NC(=O)CCl)sc(CN(C)C)c1-c1ccccc1
AC50 [15]: 20.4 µM (active) | EC50 [16]: 7.5 µM (active) | CC50 [1]: 12.5 µM (active)

CSc1ccccc1N=C(S)NCc1ccc(Cl)cc1
EC50 [4]: 5.76 µM (active) | EC50 [10]: 9.9 µM (active) | EC50 [5]: 4.54 µM (active)

Cc1cccc(N2CCN(CCCNC(=O)c3ccc(NC(=O)C4=CSCCO4)cc3)CC2C)c1 (stereo unspecified)
CC50 [1]: > 40 µM (active)

CCOc1ccc(/C=N/Nc2ccc(Cl)nn2)c(O)c1
AC50 [17]: 1.77 µM (active) | CC50 [1]: 18.4 µM (active)
